From ChEMBL document CHEMBL1201862, “PubChem BioAssay data set” (2004)
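Grown in 96-well plates, cells were treated for 48 hours with each compound at five concentrations. Insufficient inhibition: endpoint recorded as highest concentration tested. The concentration for 50% growth inhibition is given as GI50.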 Activity calls are given as the source filed them. No stated cut-off is given here; in the data, active = GI50 up to about 1.1 µM and inactive = higher.

Legend:
Test in all cases: inhibition of tumour cell growth, NCI panel, 48 h
SK-MEL-5 = system: SK-MEL-5
K562 = system: K562
HT-29 = system: HT-29
786-0 = system: 786-0
SK-MEL-2 = system: SK-MEL-2
CAKI-1 = system: CAKI-1
M14 = system: M14
HL-60 = system: HL-60
Malme-3M = system: Malme-3M
OVCAR-3 = system: OVCAR-3
SF-295 = system: SF-295
KM12 = system: KM12
MOLT-4 = system: MOLT-4
LOX IMVI = system: LOX IMVI
SF-268 = system: SF-268
SR = system: SR

Measured: GI50

N#[N+]c1ccccc1Sc1ccc(Cl)cc1
inactive: SK-MEL-5 61.2 µM | K562 75 µM | HT-29 > 100 µM | 786-0 > 100 µM | SK-MEL-2 > 100 µM | CAKI-1 > 100 µM | M14 > 100 µM | HL-60 94 µM | Malme-3M > 100 µM | OVCAR-3 > 100 µM | SF-295 > 100 µM | KM12 > 100 µM | MOLT-4 64.7 µM

C[C@]12CC(C=O)C(=O)C(O)=C1CC[C@@H]1C2CC[C@@]2(C)C1CC[C@]2(C)O (stereo partly drawn)
inactive: SK-MEL-5 17.6 µM | K562 25.9 µM | LOX IMVI 11.5 µM | HT-29 4.66 µM | 786-0 16.3 µM | SK-MEL-2 5.02 µM | SF-268 25.4 µM | M14 16.8 µM | HL-60 15.8 µM | Malme-3M 5.06 µM | OVCAR-3 24.8 µM | SF-295 27.1 µM | KM12 25.5 µM | MOLT-4 22.3 µM

COC(=O)C12C3C4C1C1C2C3C41I (stereo not drawn)
inactive: SK-MEL-5 > 100 µM | K562 > 100 µM | HT-29 > 100 µM | 786-0 > 100 µM | SF-268 > 100 µM | CAKI-1 > 100 µM | M14 > 100 µM | HL-60 > 100 µM | Malme-3M > 100 µM | OVCAR-3 > 100 µM | SF-295 > 100 µM | MOLT-4 > 100 µM

CCn1c(=O)c2ccccc2n2c(=O)c3cc4ccccc4cc3nc12
inactive: SK-MEL-5 63 µM | K562 > 100 µM | LOX IMVI > 100 µM | HT-29 64.4 µM | 786-0 37.3 µM | SK-MEL-2 > 100 µM | SF-268 65.6 µM | CAKI-1 > 100 µM | M14 > 100 µM | HL-60 91.8 µM | Malme-3M > 100 µM | OVCAR-3 > 100 µM | SF-295 28.3 µM | KM12 > 100 µM | MOLT-4 > 100 µM

COc1cc2cnc3c4ccccc4ccc3c2cc1OC
inactive: SK-MEL-5 > 100 µM | K562 > 100 µM | HT-29 > 100 µM | 786-0 > 100 µM | SK-MEL-2 > 100 µM | SF-268 > 100 µM | CAKI-1 > 100 µM | M14 > 100 µM | Malme-3M > 100 µM | OVCAR-3 > 100 µM | SF-295 > 100 µM | KM12 > 100 µM | MOLT-4 > 100 µM

CC(C)N1CCC2(CC1)NNc1ncccc1-n1cccc12
inactive: SK-MEL-5 > 100 µM | K562 > 100 µM | LOX IMVI > 100 µM | HT-29 > 100 µM | 786-0 > 100 µM | SK-MEL-2 > 100 µM | SF-268 > 100 µM | CAKI-1 > 100 µM | M14 > 100 µM | HL-60 > 100 µM | Malme-3M > 100 µM | OVCAR-3 > 100 µM | SF-295 > 100 µM | KM12 > 100 µM | MOLT-4 > 100 µM

Cc1nc(N)nc(CCC(=O)Nc2cccc(C(F)(F)F)c2)c1-c1ccc(Cl)cc1
inactive: SK-MEL-5 > 100 µM | K562 > 100 µM | HT-29 > 100 µM | SR 21.6 µM | 786-0 > 100 µM | SK-MEL-2 > 100 µM | SF-268 > 100 µM | CAKI-1 > 100 µM | M14 > 100 µM | HL-60 > 100 µM | Malme-3M > 100 µM | OVCAR-3 > 100 µM | SF-295 > 100 µM | KM12 > 100 µM | MOLT-4 > 100 µM

CC(=O)NC1=C(NCC(C)C)C(=O)c2ccccc2C1=O
inactive: SK-MEL-5 19.9 µM | K562 15.3 µM | LOX IMVI 15.5 µM | HT-29 41 µM | 786-0 14.6 µM | SK-MEL-2 26 µM | SF-268 20.5 µM | CAKI-1 16.7 µM | M14 18.2 µM | HL-60 2.76 µM | Malme-3M 18.9 µM | OVCAR-3 16.6 µM | SF-295 37.9 µM | KM12 42.9 µM | MOLT-4 29.4 µM

NCCCSCC(=O)O
inactive: SK-MEL-5 > 100 µM | K562 > 100 µM | HT-29 > 100 µM | 786-0 > 100 µM | SK-MEL-2 > 100 µM | SF-268 > 100 µM | CAKI-1 > 100 µM | Malme-3M > 100 µM | OVCAR-3 > 100 µM | SF-295 > 100 µM | KM12 > 100 µM | MOLT-4 > 100 µM

O=c1cc(-c2ccccc2)oc2cc(OCCCCCCCCCCOc3ccc4c(=O)cc(-c5ccccc5)oc4c3)ccc12
inactive: SK-MEL-5 > 100 µM | K562 > 100 µM | HT-29 > 100 µM | SR > 100 µM | 786-0 > 100 µM | SK-MEL-2 > 100 µM | CAKI-1 > 100 µM | M14 > 100 µM | HL-60 > 100 µM | Malme-3M > 100 µM | OVCAR-3 > 100 µM | SF-295 > 100 µM | KM12 > 100 µM | MOLT-4 > 100 µM
